Measurements from US20200079773A1, “CARBOXYLIC ACID DERIVATIVES OF PYRIDOQUINAZOLINES USEFUL AS PROTEIN KINASE INHIBITORS” (ONCOSTELLAE, S.L., priority 2017, published 2020).

Assays:
Format in all cases: biochemical
[1] = target: T1, JAK1 (Homo sapiens, UniProt P23458); experiment: Functional assay of protein kinases (Caliper mobility shift), JAK1; settings: ATP 100 μM, 150 min incubation
T1 construct: purchased Carna Biosciences 08-144
Description: (§1) Functional Assays of Protein Kinases
(§2) The functional assays of protein kinases were carried out in 384-well plates using a final volume of 30 μl. […] The reaction was reads in a “Caliper EzReader LabChip 3000” (Caliper, Hopkinton, Mass.) reader, based on electrophoretic mobility of the fluorescent substrate and the phosphorylated product.
(§3) The inhibition percentages were calculated by comparison between control reactions, for 100% of inhibition and reactions with only DMSO for 0% of inhibition.

[2] = target: T2, JAK2 (Homo sapiens, UniProt O60674); experiment: Functional assay of protein kinases (Caliper mobility shift), JAK2; settings: ATP 300 μM, 30 min incubation
T2 construct: purchased Carna Biosciences 08-045
T2 sequence (O60674 826-1132 limits assumed): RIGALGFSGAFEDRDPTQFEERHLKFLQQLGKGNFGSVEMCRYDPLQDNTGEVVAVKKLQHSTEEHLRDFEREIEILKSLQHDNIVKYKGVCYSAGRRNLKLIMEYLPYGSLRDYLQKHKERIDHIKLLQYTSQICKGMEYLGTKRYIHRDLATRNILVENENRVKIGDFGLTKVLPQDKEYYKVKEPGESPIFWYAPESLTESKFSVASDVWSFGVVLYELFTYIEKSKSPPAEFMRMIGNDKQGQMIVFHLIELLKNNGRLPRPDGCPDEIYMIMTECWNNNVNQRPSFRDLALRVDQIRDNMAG
Description: as §1, §2, §3

[3] = target: T3, JAK3 (Homo sapiens, UniProt P52333); experiment: Functional assay of protein kinases (Caliper mobility shift), JAK3; settings: ATP 8 μM, 30 min incubation
T3 construct: purchased Carna Biosciences 08-046
T3 sequence (P52333 795-1124 limits assumed): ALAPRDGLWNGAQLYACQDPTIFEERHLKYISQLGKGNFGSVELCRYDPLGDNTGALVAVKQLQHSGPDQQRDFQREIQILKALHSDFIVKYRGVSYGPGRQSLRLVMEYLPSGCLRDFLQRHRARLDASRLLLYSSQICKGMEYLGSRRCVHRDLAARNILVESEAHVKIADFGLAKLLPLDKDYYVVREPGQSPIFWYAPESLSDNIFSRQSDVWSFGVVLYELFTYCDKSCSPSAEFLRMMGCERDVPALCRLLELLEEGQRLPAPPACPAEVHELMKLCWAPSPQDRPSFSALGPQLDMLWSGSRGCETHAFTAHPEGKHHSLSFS
Description: as §1, §2, §3

[4] = target: T4, TYK2 (Homo sapiens, UniProt P29597); experiment: Functional assay of protein kinases (Caliper mobility shift), TYK2; settings: ATP 20 μM, 45 min incubation
T4 construct: purchased Carna Biosciences 08-147
T4 sequence (P29597 871-1187 limits assumed): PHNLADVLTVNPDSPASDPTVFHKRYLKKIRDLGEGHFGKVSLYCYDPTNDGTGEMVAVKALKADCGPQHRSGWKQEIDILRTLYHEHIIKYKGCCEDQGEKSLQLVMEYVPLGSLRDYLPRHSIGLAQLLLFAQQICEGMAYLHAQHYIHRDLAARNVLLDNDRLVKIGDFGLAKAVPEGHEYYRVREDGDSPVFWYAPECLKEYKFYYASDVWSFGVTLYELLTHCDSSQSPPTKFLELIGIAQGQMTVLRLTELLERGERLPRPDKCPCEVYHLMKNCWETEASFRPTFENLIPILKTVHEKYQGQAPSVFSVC
Description: as §1, §2, §3

T1 sequence (P23458 850-1154 limits assumed): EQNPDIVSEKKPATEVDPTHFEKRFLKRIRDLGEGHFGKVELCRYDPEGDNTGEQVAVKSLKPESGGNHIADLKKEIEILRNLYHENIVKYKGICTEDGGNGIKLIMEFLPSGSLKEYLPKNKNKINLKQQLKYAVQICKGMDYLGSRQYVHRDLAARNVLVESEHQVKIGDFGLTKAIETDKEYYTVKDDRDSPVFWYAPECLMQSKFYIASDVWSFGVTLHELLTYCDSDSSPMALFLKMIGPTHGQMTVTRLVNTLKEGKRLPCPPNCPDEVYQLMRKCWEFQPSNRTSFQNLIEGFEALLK

**Q.** What does the source list for O=C(NC1CCC(C(=O)O)CC1)c1cccn2c(=O)c3cc(C4CC4)ccc3nc12 (stereo not drawn) [Example 1, 4-(2-cyclpropyl-11-oxo-11H-pyrido[2,1-b]quinazoline-6-carboxamido)cyclohexane-1-carboxylic acid]?
**A.** IC50 [1]: ≥ 1000 nM; IC50 [2]: ≥ 1000 nM; IC50 [3]: < 100 nM

**Q.** Which results are given for Cc1ccc(-c2ccc3nc4c(C(=O)N[C@H]5CC[C@@H](C(=O)O)CC5)cccn4c(=O)c3c2)s1 [Example 2, (1S,4S)-4-(2-(5-methylthiophen-2-yl)-11-oxo-11H-pyrido[2,1-b]quinazoline-6 carboxamido)cyclohexane-1-carboxylic acid]?
**A.** IC50 [3]: < 100 nM; IC50 [4]: < 100 nM

**Q.** With O=C(NC1CCC(C(=O)O)CC1)c1cccn2c(=O)c3cc(C4CC4)ccc3nc12 [Example 4, (1R,4R)-4-(2-cyclopropyl-11-oxo-11H-pyrido[2,1-b]quinazoline-6-carboxamido)cyclohexane-1-carboxylic acid] as the molecule, how does the IC50 [1] read?
**A.** ≥ 1000 nM

**Q.** And the IC50 [2]?
**A.** ≥ 1000 nM

**Q.** And the IC50 [3]?
**A.** 100 to 1000 nM

**Q.** And the IC50 [4]?
**A.** ≥ 1000 nM

**Q.** Which results are given for O=C(NC12CCC(C(=O)O)(CC1)C2)c1cccn2c(=O)c3cc(C4CC4)ccc3nc12 [Example 7, 4-(2-cyclpropyl-11-oxo-11H-pyrido[2,1-b]quinazoline-6-carboxamido)bicyclo[2.2.1]heptane-1-carboxylic acid]?
**A.** IC50 [1]: ≥ 1000 nM; IC50 [2]: ≥ 1000 nM; IC50 [3]: 100 to 1000 nM; IC50 [4]: 100 to 1000 nM

**Q.** Cc1cc(C(=O)N[C@H]2CC[C@@H](C(=O)O)CC2)c2nc3ccccc3c(=O)n2c1 [Example 11, (1S,4S)-4-(8-methyl-11-oxo-11H-pyrido[2,1-b]quinazoline-6-carboxamido)cyclohexane-1-carboxylic acid] was tested. Which IC50 [1] did it give?
**A.** ≥ 1000 nM

**Q.** And the IC50 [2]?
**A.** ≥ 1000 nM

**Q.** What about the IC50 [3] of the same molecule?
**A.** ≥ 1000 nM

**Q.** What about the IC50 [4] of the same molecule?
**A.** 100 to 1000 nM

**Q.** For O=C(NC1CCC(C(=O)O)CC1)c1cccn2c(=O)c3ccccc3nc12 (stereo not drawn) [Example 12, 4-(11-oxo-11H-pyrido[2,1-b]quinazoline-6-carboxamido)cyclohexane-1-carboxylic acid], which IC50 [1] is on record?
**A.** ≥ 1000 nM

**Q.** And the IC50 [2]?
**A.** ≥ 1000 nM

**Q.** And the IC50 [3]?
**A.** 100 to 1000 nM

**Q.** What about the IC50 [4] of the same molecule?
**A.** 100 to 1000 nM

**Q.** O=C(N[C@H]1CC[C@@H](C(=O)O)CC1)c1cccn2c(=O)c3cc(-c4ccccc4)ccc3nc12 [Example 15, (1S,4S)-4-(11-oxo-2-phenyl-11H-pyrido[2,1-b]quinazoline-6-carboxamido)cyclohexane-1-carboxylic acid] was tested. Which IC50 [1] did it give?
**A.** ≥ 1000 nM

**Q.** What about the IC50 [2] of the same molecule?
**A.** ≥ 1000 nM

**Q.** What about the IC50 [3] of the same molecule?
**A.** < 100 nM

**Q.** What about the IC50 [4] of the same molecule?
**A.** < 100 nM

**Q.** How did the IC50 [3] turn out when O=C(NC1CCC(C(=O)O)CC1)c1cccn2c(=O)c3cc(O)ccc3nc12 (stereo not drawn) [Example 19, 4-(2-hydroxy-11-oxo-11H-pyrido[2,1-b]quinazoline-6-carboxamido)cyclohexane-1-carboxylic acid] was run?
**A.** 100 to 1000 nM

**Q.** What about the IC50 [4] of the same molecule?
**A.** 100 to 1000 nM

**Q.** O=C(N[C@H]1CC[C@@H](C(=O)O)CC1)c1cccn2c(=O)c3cc(-c4cccc(F)c4)ccc3nc12 [Example 29, (cis)-4-(2-(3-fluorophenyl)-11-oxo-11H-pyrido[2,1-b]quinazoline-6-carboxamido)cyclohexane-1-carboxylic acid] was tested. Which IC50 [3] did it give?
**A.** < 100 nM

**Q.** And the IC50 [4]?
**A.** < 100 nM

**Q.** O=C(N[C@H]1CC[C@@H](C(=O)O)CC1)c1cccn2c(=O)c3cc(-c4ccc(F)c(F)c4)ccc3nc12 [Example 30, (cis)-4-(2-(3,4-difluorophenyl)-11-oxo-11H-pyrido[2,1-b]quinazoline-6-carboxamido)cyclohexane-1-carboxylic acid] was tested. Which IC50 [3] did it give?
**A.** < 100 nM

**Q.** What about the IC50 [4] of the same molecule?
**A.** < 100 nM

**Q.** Which results are given for N#Cc1ccc(-c2ccc3nc4c(C(=O)N[C@H]5CC[C@@H](C(=O)O)CC5)cccn4c(=O)c3c2)cc1 [Example 31, (cis)-4-(2-(4-cyanophenyl)-11-oxo-11H-pyrido[2,1-b]quinazoline-6-carboxamido)cyclohexane-1-carboxylic acid]?
**A.** IC50 [3]: < 100 nM; IC50 [4]: < 100 nM

**Q.** What does the source list for N#Cc1cccc(-c2ccc3nc4c(C(=O)N[C@H]5CC[C@@H](C(=O)O)CC5)cccn4c(=O)c3c2)c1 [Example 32, (cis)-4-(2-(3-cyanophenyl)-11-oxo-11H-pyrido[2,1-b]quinazoline-6-carboxamido)cyclohexane-1-carboxylic acid]?
**A.** IC50 [3]: < 100 nM; IC50 [4]: < 100 nM

**Q.** Which IC50 [3] does the source give for O=C(O)c1ccc(-c2ccc3nc4c(C(=O)N[C@H]5CC[C@@H](C(=O)O)CC5)cccn4c(=O)c3c2)cc1 [Example 33, 4-(6-(((cis)-4-carboxycyclohexyl)carbamoyl)-11-oxo-11H-pyrido[2,1-b]quinazolin-2-yl)benzoic acid] here?
**A.** < 100 nM

**Q.** What about the IC50 [4] of the same molecule?
**A.** < 100 nM

**Q.** What does the source list for O=C(N[C@H]1CC[C@@H](C(=O)O)CC1)c1cccn2c(=O)c3cc(-c4cccnc4)ccc3nc12 [Example 34, (cis)-4-(11-oxo-2-(pyridin-3-yl)-11H-pyrido[2,1-b]quinazoline-6-carboxamido)cyclohexane-1-carboxylic acid]?
**A.** IC50 [3]: < 100 nM; IC50 [4]: < 100 nM

**Q.** For O=C(N[C@H]1CC[C@H](C(=O)O)CC1)c1cccn2c(=O)c3cc(-c4ccncc4)ccc3nc12 [Example 35, (trans)-4-(11-oxo-2-(pyridin-4-yl)-11H-pyrido[2,1-b]quinazoline-6-carboxamido)cyclohexane-1-carboxylic acid], which IC50 [3] is on record?
**A.** 100 to 1000 nM

**Q.** And the IC50 [4]?
**A.** ≥ 1000 nM

**Q.** With O=C(N[C@H]1CC[C@@H](C(=O)O)CC1)c1cccn2c(=O)c3cc(-c4ccncc4F)ccc3nc12 [Example 36, (cis)-4-(2-(3-fluoropyridin-4-yl)-11-oxo-11H-pyrido[2,1-b]quinazoline-6-carboxamido)cyclohexane-1-carboxylic acid] as the molecule, how does the IC50 [3] read?
**A.** < 100 nM

**Q.** What about the IC50 [4] of the same molecule?
**A.** 100 to 1000 nM

**Q.** For O=C(N[C@H]1CC[C@@H](C(=O)O)CC1)c1cccn2c(=O)c3cc(-c4cncnc4)ccc3nc12 [Example 37, (cis)-4-(11-oxo-2-(pyrimidin-5-yl)-11H-pyrido[2,1-b]quinazoline-6-carboxamido)cyclohexane-1-carboxylic acid], which IC50 [3] is on record?
**A.** < 100 nM

**Q.** And the IC50 [4]?
**A.** 100 to 1000 nM

**Q.** Cn1cc(-c2ccc3nc4c(C(=O)N[C@H]5CC[C@@H](C(=O)O)CC5)cccn4c(=O)c3c2)cn1 [Example 38, (cis)-4-(2-(1-methyl-1H-pyrazol-4-yl)-11-oxo-11H-pyrido[2,1-b]quinazoline-6-carboxamido)cyclohexane-1-carboxylic acid] was tested. Which IC50 [3] did it give?
**A.** < 100 nM

**Q.** What about the IC50 [4] of the same molecule?
**A.** < 100 nM

**Q.** For O=C(N[C@H]1CC[C@@H](C(=O)O)CC1)c1cccn2c(=O)c3cc(-c4cccs4)ccc3nc12 [Example 39, (cis)-4-(11-oxo-2-(thiophen-2-yl)-11H-pyrido[2,1-b]quinazoline-6-carboxamido)cyclohexane-1-carboxylic acid], which IC50 [3] is on record?
**A.** < 100 nM

**Q.** What about the IC50 [4] of the same molecule?
**A.** < 100 nM

**Q.** Which IC50 [3] does the source give for O=C(N[C@H]1CC[C@@H](C(=O)O)CC1)c1cc(Br)cn2c(=O)c3ccccc3nc12 [Example 40, (cis)-4-(8-bromo-11-oxo-11H-pyrido[2,1-b]quinazoline-6-carboxamido)cyclohexane-1-carboxylic acid] here?
**A.** 100 to 1000 nM

**Q.** And the IC50 [4]?
**A.** < 100 nM

**Q.** Which IC50 [3] does the source give for O=C(NC1CC(C(=O)O)C1)c1cccn2c(=O)c3cc(C4CC4)ccc3nc12 (stereo not drawn) [Example 41, 3-(2-cyclopropyl-11-oxo-11H-pyrido[2,1-b]quinazoline-6-carboxamido)cyclobutane-1-carboxylic acid] here?
**A.** 100 to 1000 nM

**Q.** And the IC50 [4]?
**A.** 100 to 1000 nM

**Q.** N#Cc1ccc(-c2ccc3nc4c(C(=O)N[C@H]5CC[C@@H](C(=O)O)CC5)cccn4c(=O)c3c2)s1 [Example 42, (1S,4S)-4-(2-(5-cyanothiophen-2-yl)-11-oxo-11H-pyrido[2,1-b]quinazoline-6-carboxamido)cyclohexane-1-carboxylic acid] was tested. Which IC50 [3] did it give?
**A.** < 100 nM

**Q.** And the IC50 [4]?
**A.** < 100 nM

**Q.** For NC(=O)c1ccc(-c2ccc3nc4c(C(=O)N[C@H]5CC[C@@H](C(=O)O)CC5)cccn4c(=O)c3c2)s1 [Example 43, (1S,4S)-4-(2-(5-carbamoylthiophen-2-yl)-11-oxo-11H-pyrido[2,1-b]quinazoline-6-carboxamido)cyclohexane-1-carboxylic acid], which IC50 [3] is on record?
**A.** < 100 nM

**Q.** And the IC50 [4]?
**A.** < 100 nM

**Q.** Which IC50 [3] does the source give for Cn1cnc(-c2ccc3nc4c(C(=O)N[C@H]5CC[C@@H](C(=O)O)CC5)cccn4c(=O)c3c2)c1 [Example 44, (1S,4S)-4-(2-(1-methyl-1H-Imidazol-4-yl)-11-oxo-11H-pyrido[2,1-b]quinazoline-6-carboxamido)cyclohexane-1-carboxylic acid] here?
**A.** < 100 nM

**Q.** And the IC50 [4]?
**A.** < 100 nM

**Q.** Which results are given for O=C(N[C@H]1CC[C@@H](C(=O)O)CC1)c1cccn2c(=O)c3cc(-c4ccc(C5CC5)s4)ccc3nc12 [Example 45, (1S,4S)-4-(2-(5-cyclpropylthiophen-2-yl)-11-oxo-11H-pyrido[2,1-b]quinazoline-6-carboxamido)cyclohexane-1-carboxylic acid]?
**A.** IC50 [3]: < 100 nM; IC50 [4]: < 100 nM

**Q.** For O=C(O)c1ccc(-c2ccc3nc4c(C(=O)N[C@H]5CC[C@@H](C(=O)O)CC5)cccn4c(=O)c3c2)s1 [Example 47, 5-(6-(((1s,4s)-4-carboxycyclohexyl)carbamoyl)-11-oxo-11H-pyrido[2,1-b]quinazolin-2-yl)thiophene-2-carboxylic acid], which IC50 [3] is on record?
**A.** < 100 nM

**Q.** What about the IC50 [4] of the same molecule?
**A.** < 100 nM
